Test results published in patent EP4635969A1, “NOVEL GLUCOCORTICOID, METHOD FOR PREPARING SAME, AND USE THEREOF” (Tianjin Pharmaceutical Biotechnology Co., Ltd., priority 2022, dated 2024).

What was measured:
[1] = tested on: psoriasis model mice; test: Psoriasis experiment (imiquimod model): skin lesion (PASI) score; type: in vivo; conditions: compared with the model group
[2] = tested on: dry eye syndrome model New Zealand rabbits; test: Dry eye syndrome experiment (benzalkonium chloride model): corneal fluorescein sodium staining; type: in vivo, male New Zealand White rabbits; conditions: for inflammatory response on the ocular surface / ocular symptoms: compared with the model group
Protocol: Pharmacological Example 6: Therapeutic Pharmacodynamic Experiment on Dry Eye Syndrome in New Zealand Rabbits
Positive control drug: Fluorometholone Eye Drops (specification: 5 mL/5 mg; Santen Pharmaceutical (CHINA) Co., Ltd.; Lot No.: 1FM6625) was used as the positive control drug and stored at room temperature protected from light until use.
Thirty male New Zealand White rabbits (conventional grade) were prepared. Six rabbits were randomly selected as the blank control group, and the remaining animals were administered 0.1% benzalkonium chloride to the left eye twice daily (morning and evening) , 10 µL/animal each time. […] During the administration, all animals except the blank control group were administered 10 µL of 0.1% benzalkonium chloride to the left eye once daily to maintain dry eye symptoms..
• Test time: D3, D7, D15; • Test animals: All animals were tested before grouping; all enrolled surviving animals were tested after administration; • Test method: 2 µL of 1% Fluorescein sodium was dropped into the conjunctival sac. After 5 s, the excess fluorescein was rinsed with 0.9% normal saline. The conjunctival staining was observed under a slit lamp with cobalt blue diffused light.
The normality and homogeneity of variance were tested by Levene's test. If there was no statistical significance (P > 0.05), one-way analysis of variance (ANOVA) was used for statistical analysis. If ANOVA was statistically significant (P ≤ 0.05), LSD test (parametric method) was used for comparative analysis. If the variance was heterogeneous (P ≤ 0.05), Kruskal-Wallis test was used. If the Kruskal-Wallis test was statistically significant (P ≤ 0.05), Dunnett's test (nonparametric method) was used for comparative analysis.

[3] = biological target: T1, mineralocorticoid receptor (MR) (Homo sapiens, UniProt P08235); test: Assay for agonist activity on mineralocorticoid receptor (luciferase reporter, HEK293 cells transfected with pBIND-MR plasmid); type: cell-based; conditions: for Target selectivity MR/GR: ratio of EC50 values; for target selectivity: MR/GR and PR/GR, same experimental conditions
T1 sequence (P08235 726-984): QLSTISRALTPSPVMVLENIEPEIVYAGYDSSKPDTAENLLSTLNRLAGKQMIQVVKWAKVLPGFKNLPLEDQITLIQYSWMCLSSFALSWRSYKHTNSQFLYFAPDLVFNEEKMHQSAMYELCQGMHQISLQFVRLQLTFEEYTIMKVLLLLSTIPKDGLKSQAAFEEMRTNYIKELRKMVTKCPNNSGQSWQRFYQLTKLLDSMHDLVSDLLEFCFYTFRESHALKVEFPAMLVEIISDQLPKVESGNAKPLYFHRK
Outline: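 HEK293 cells transiently transfected with pBIND-MR or pBIND-PR, seeded in phenol red-free DMEM with 5% charcoal-stripped serum. Compounds tested as 12-point 4-fold dilutions from 50 µM in duplicate, 0.1% DMSO blank. Luciferase luminescence read, EC50 by nonlinear fit.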

[4] = tested on: inflammatory cytokines (TNF-α); test: Anti-uveitis pharmacodynamic experiment (LPS model): inflammatory cytokines in aqueous humor (ELISA); type: in vivo, male SD rats; conditions: values not given
Protocol: Pharmacological Example 5. Pharmacodynamic Experiment on Anti-Uveitis
Test samples: Compounds 23 and 26 were prepared as 5 mg/5 mL ophthalmic suspensions with reference to the formulation of Fluorometholone Eye Drops, and stored at room temperature protected from light until use.
Positive control drug: Fluorometholone Eye Drops (specification: 5 mL/5 mg; Santen Pharmaceutical (CHINA) Co., Ltd.; Lot No. : J20180068) was used as the positive control drug and stored at room temperature protected from light until use.
Fifty male SD rats underwent a one-week adaptive feeding period. The animals were randomly divided into 5 groups: Group 1 served as the blank control group, and Groups 2 to 5 were the model group, fluorometholone group, compound 23 group, and compound 26 group, respectively. Groups 2 to 5 were used to establish rat uveitis models by single subcutaneous injection of 1 mg/kg LPS (Salmonella; Sigma; Lot No. 0000164114) into the plantar tissue of the hindpaw. Salmonella endotoxin was dissolved in normal saline to prepare an injection solution at a concentration of 2 mg/mL, which was injected subcutaneously at 1 mg/kg into the plantar tissue of one paw of the rats. Group 1 was injected with an equal volume of normal saline.
After modeling, 40 µL of normal saline was administered to the eyes (bilateral) of the rats in the blank control group and model group, and 40 µL of the corresponding drugs were administered to the eyes (bilateral) of the […] in the compound 23 group, compound 26 group, and positive drug fluorometholone group, 3 times a day for 2 days. Table 8. Animal grouping and drug administration dosages
Thirty hours after modeling, aqueous humor was collected from both eyes of rats, and partial eyeball tissues of rats were collected. The level of the inflammatory cytokines (TNF-α) was detected using a rat ELISA assay kit.
Statistical analysis was performed using SPSS software. Measurement data were expressed as mean ± standard deviation. One-way ANOVA was used for intergroup comparisons. For data with homogeneous variance, LSD test was used; for data with heterogeneous variance, Dunnett-t test was used. A value of P < 0.05 was considered statistically significant.

[5] = tested on: asthma model mice; test: Anti-asthma pharmacodynamic experiment: airway hyperresponsiveness (Penh) after methacholine challenge; type: in vivo, female BALB/c mice; conditions: compared with the model group
Protocol: Pharmacological Example 4: Pharmacodynamic Experiment on Anti-Asthma
The suspensions were stored at room temperature protected from light until use.
Positive control drug: Budesonide Suspension for Inhalation (specification: 2 mL: 1 mg; AstraZeneca Inc.; Lot No. : 327392) was diluted with injection-grade sodium chloride solution to 0.3 mg/ml as the positive control drug, and stored at room temperature protected from light until use.
Sixty female BALB/c mice underwent a one-week adaptive feeding period. Ten mice were randomly selected as the blank control group, while 50 mice were selected to establish asthma models.
From days 21 to 23 after sensitization, the mice in the model group and drug administration group were exposed to a 30-minute aerosol challenge with 5% OVA, while the mice in the blank control group were exposed to normal saline aerosol for the same duration.
Airway responsiveness was measured in all groups of mice after the last challenge. The mice were placed into a plethysmography chamber, and baseline Penh values were recorded. Subsequently, the mice were challenged with aerosolized methacholine at concentrations from low to high of 0, 6.25, and 12.5 mg/mL, with an aerosol volume of 100 µ L each time for 60 s. […] Penh values were then recorded for 3 min and averaged to compare the airway responsiveness of each group of mice.

[6] = tested on: IL-17; test: Psoriasis experiment (imiquimod model): inflammatory cytokine in serum (ELISA); type: in vivo, mice; conditions: compared with the model group
Protocol: Positive control drug: Fluticasone Propionate Cream (specification: 0.05% × 15 g, Zhejiang Xianju Pharmaceutical Co. Ltd., Lot No. 211106), stored at room temperature protected from light until use.
Adult mice were selected, and the skin of 2 cm × 3 cm on the back of mice was locally depilated. The mice in the model group and drug administration group were applied with 62.5 mg of 5% imiquimod cream on their back for modeling, while the mice in the blank control group were applied with medical petroleum jelly on their back daily. The above procedures were performed once a day for 7 consecutive days.
The mice in the drug administration group were applied with the corresponding drugs on their backs daily at a dose of 0.2 g per mouse, while the blank control group and the model group were only applied with 0.2 g of the test sample drug matrix. One hour after drug administration, the drugs were wiped off with sterile cotton swabs, followed by the application of imiquimod. The above procedures were performed once a day for 7 consecutive days.
After the PASI scoring on day 8 of modeling, blood was collected from the orbital sinus of mice and centrifuged at 3000 rpm for 10 min. The supernatant was extracted to measure the level of IL-17. All procedures were performed following the instructions of the ELISA kit.
Statistical analysis was performed using SPSS software, and the results were expressed as mean ± standard deviation. One-way ANOVA was used for intergroup comparisons. For data with homogeneous variance, the LSD test was used; for data with heterogeneous variance, the Dunnett-t test was used. A value of P < 0.05 was considered statistically significant.

[7] = tested on: inflammatory cytokines IL-6 and IL-12; test: Anti-asthma pharmacodynamic experiment: inflammatory cytokines in bronchoalveolar lavage fluid (ELISA); type: in vivo, female BALB/c mice; conditions: compared with the model group
[8] = Determination of stability in plasma in vitro, human plasma (LC-MS/MS); type: in vitro ADME; conditions: same experimental conditions (human and mouse plasma)
Outline: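 Compound at 1 µM final in human or mouse plasma (N = 2) at 37 °C; aliquots taken at 0 and preset time points into ice-cold precipitant with internal standard. Remaining compound measured semi-quantitatively by LC-MS/MS as analyte/internal-standard peak-area ratio.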

Compound	PASI scores [1]	inflammatory response on the ocular surface / ocular symptoms [2]	EC50 [3]	Target selectivity MR/GR [3]	inflammatory cytokines in aqueous humor [4]	Effects on airway hyperresponsiveness (Penh values) in mice [5]	level of IL-17 / inflammatory cytokines in psoriasis model mice [6]	Effects on inflammatory cytokines in bronchoalveolar lavage fluid of mice [7]	plasma instability [8]	target selectivity [3]	Corneal fluorescein sodium staining score D3 ([2]; D3, 1 mg/mL, 50 µL/eye, 3 times a day for 14 days)	Corneal fluorescein sodium staining score D7 ([2]; D7, 1 mg/mL, 50 µL/eye, 3 times a day for 14 days)	Corneal fluorescein sodium staining score D15 ([2]; D15, 1 mg/mL, 50 µL/eye, 3 times a day for 14 days)
C[C@]12C=CC(=O)C=C1[C@@H](F)C[C@H]1[C@@H]3C[C@H]4OC(c5ccc(CSC6CCOC6=O)cc5)O[C@@]4(C(=O)SCF)[C@@]3(C)C[C@H](O)[C@@]12F (stereo partly drawn) [Compound 34, S-(Fluoromethyl) (2S,6aS,6bR,7S,8aS,8bS,11aR,12aS,12bS)-2,6b-difluoro-7-hydroxy-6a,8a-dimethyl-4-oxo-10-(4-( ((2-oxotetrahydrofuran-3-yl)thio)methyl)phenyl)-1,2,4,6a,6b,7,8,8a,11a,12,12a,12b-dodecahydro-8bH-naphtho[2',1':4,5]indeno[1,2-d][1,3]dioxole-8b-carbothioate]	significantly decreased PASI scores on day 7	significantly alleviated the ocular symptoms in dry eye syndrome model New Zealand rabbits	> 50 µM	> 5.0×10^5	suppressed inflammatory cytokines in aqueous humor	significantly decreased the Penh values in mice	significantly inhibited inflammatory cytokines in the skin of psoriasis model mice	pharmacological effects similar to those of compound 23	exhibited the characteristic of plasma instability	–	–	–	–
C[C@]12C=CC(=O)C=C1[C@@H](F)C[C@H]1[C@@H]3C[C@H]4OC(c5ccc(CSC6CCOC6=O)cc5)O[C@@]4(C(=O)OCC#N)[C@@]3(C)C[C@H](O)[C@@]12F (stereo partly drawn) [Compound 37, Cyanomethyl (2S,6aS,6bR,7S,8aS,8bS,11aR,12aS,12bS)-2,6b-difluoro-7-hydroxy-6a,8a-dimethyl-4-oxo-10-(4-( ((2-oxotetrahydrofuran-3-yl)thio)methyl)phenyl)-1,2,4,6a,6b,7,8,8a,11a,12,12a,12b-dodecahydro-8bH-naphtho[2',1':4,5]indeno[1,2-d][1,3]dioxole-8b-carboxylate]	significantly decreased PASI scores on day 7	significantly alleviated the ocular symptoms in dry eye syndrome model New Zealand rabbits	–	–	suppressed inflammatory cytokines in aqueous humor	significantly decreased the Penh values in mice	significantly inhibited inflammatory cytokines in the skin of psoriasis model mice	pharmacological effects similar to those of compound 23	exhibited the characteristic of plasma instability	target selectivity comparable to that of compound 23	–	–	–
C[C@]12C=CC(=O)C=C1[C@@H](F)C[C@H]1[C@@H]3C[C@H]4OC(c5ccc(CSC6CCOC6=O)cc5)O[C@@]4(C(=O)SCC#N)[C@@]3(C)C[C@H](O)[C@@]12F (stereo partly drawn) [Compound 35, S-(Cyanomethyl) (2S,6aS,6bR,7S,8aS,8bS,11aR,12aS,12bS)-2,6b-difluoro-7-hydroxy-6a,8a-dimethyl-4-oxo-10-(4-( ((2-oxotetrahydrofuran-3-yl)thio)methyl)phenyl)-1,2,4,6a,6b,7,8,8a,11a,12,12a,12b-dodecahydro-8bH-naphtho[2',1':4,5]indeno[1,2-d][1,3]dioxole-8b-carbothioate]	significantly decreased PASI scores on day 7	significantly alleviated the ocular symptoms in dry eye syndrome model New Zealand rabbits	> 50 µM	> 2.4×10^5	suppressed inflammatory cytokines in aqueous humor	significantly decreased the Penh values in mice	significantly inhibited inflammatory cytokines in the skin of psoriasis model mice	pharmacological effects similar to those of compound 23	exhibited the characteristic of plasma instability	–	–	–	–
C[C@]12C=CC(=O)C=C1CC[C@H]1[C@@H]3C[C@H]4OC(c5ccc(CSC6COC(=O)C6)cc5Cl)O[C@@]4(C(=O)CO)[C@@]3(C)C[C@H](O)[C@@]12F (stereo partly drawn) [Compound 20, (6aS,6bR,7S,8aS,8bS,11aR,12aS,12bS)-10-(2-Chloro-4-(((5-oxotetrahydrofuran-3-yl)thio)methyl)phenyl)-6b-fluoro-7-hydroxy-8b-(2-hydroxyacetyl)-6a,8a-dimethyl-1,2,6a,6b,7,8,8a,8b,11a,12,12a, 12b-dodecahydro-4H-naphtho[2',1':4,5]indeno[1,2-d][1,3]dioxol-4-one]	significantly decreased PASI scores on day 7	significantly inhibited the inflammatory response on the ocular surface on day 15	–	–	suppressed inflammatory cytokines in aqueous humor	significantly decreased the Penh values in mice	significantly inhibited inflammatory cytokines in the skin of psoriasis model mice	pharmacological effects similar to those of compound 23	exhibited the characteristic of plasma instability	target selectivity comparable to that of compound 23	2.33 ± 0.82	1.5 ± 0.55	1.1 ± 0.52
C[C@]12C=CC(=O)C=C1CC[C@H]1[C@@H]3C[C@H]4OC(c5ccc(CSC6COC(=O)C6)cc5)O[C@@]4(C(=O)CO)[C@@]3(C)C[C@H](O)[C@@]12Cl (stereo partly drawn) [Compound 26, (6aS,6bR,7S,8aS,8bS,11aR,12aS,12bS)-6b-Chloro-7-hydroxy-8b-(2-hydroxyacetyl)-6a,8a-dimethyl-10-(4-(((5-oxotetrahydrofuran-3-yl)thio)methyl)phenyl)-1,2,6a,6b,7,8,8a,8b,11a,12,12a,12b-do decahydro-4H-naphtho[2',1':4,5]indeno[1,2-d][1,3]dioxol-4-one]	significantly decreased PASI scores on day 7	significantly alleviated the ocular symptoms in dry eye syndrome model New Zealand rabbits	–	–	suppressed inflammatory cytokines in aqueous humor	significantly decreased the Penh values in mice	significantly inhibited inflammatory cytokines in the skin of psoriasis model mice	pharmacological effects similar to those of compound 23	exhibited the characteristic of plasma instability	target selectivity comparable to that of compound 23	–	–	–
